Data from US20220168271A1, “COMPOSITIONS AND METHODS FOR INCREASING T CELL FUNCTION” (SOCIETE DES PRODUITS NESTLE S.A., priority 2019, published 2022).

What was measured:
[1] = test system: OTI-1 CD8+ T-cells; experiment: CD62L surface expression by FACS on in vitro stimulated CD8+ T cells; format: cell-based, mouse; conditions: FACS median fluorescence, day 7; negative control = effector T cells expanded with IL-2/7; concentrations as in the 1st table/the 2nd table
Method: (§1) Unless specified otherwise, cell media were supplemented with agents or combinations of agents at the following concentrations:
An OTI-1 mouse was sacrifice and dissected to extract the spleen. Under sterile conditions, the spleen was disrupted over a […] filter. PBS was then added to the disrupted spleen to a volume of 30 mL, and the mixture was centrifuged (1500 rpm, 5 min at room temperature).
The PBS supernatant was discarded and the cells resuspended in 2 mL of 1× red blood cell lysis buffer for 3 min. 15 mL of PBS was then added to wash the cells, and the mixture was centrifuged (1500 rpm, 5 min at room temperature).
The PBS supernatant was discarded and the cells resuspended in fresh RPMI completed media (+10% FBS, Sodium Pyruvate) before counting.
(§2) 750 μL of agent/agent combination supplementation solutions (described above) were added to corresponding wells of a flat bottom 24-well plate.
(§3) The total splenic cells were then resuspended in RPMI completed media (+10% FBS, Sodium Pyruvate), including IL-2 (final concentration 100 U/mL) and SIINFEKL peptide (final concentration 250 nM) at 1.6×10^6 cells/mL.
750 μL of cell solution (2×) were added to each well. Thus, the cell count was 1200000 cells per well at 0.8×10^6 cells/mL.
The cells were then incubated at 37° C. for 3 days.
The specific activation of OTI-1 T-cells is due to the SIINFEKL peptide. Therefore after 3 days, mostly (if not only) CD8 T-cells will have proliferated and show an activation profile.
(§4) The cells from each condition (after day 3) were counted and resuspended in RPMI completed media (+10% FBS, Sodium Pyruvate) at 1.2×10^6 cells/mL.
(§5) The cells were then distributed in 96-well or 12-well plates at 5×10^4 cells/well (96-well plate) and 6×10^6 cells/well (12-well plate).
(§6) Agent/agent combination supplementation solutions (described above) or complete media were added to corresponding wells in addition to either: (a) IL-2 (at a final concentration of 100 U/mL) and IL-7 (at a final concentration of 10 U/mL) (to keep the effector phenotype); or (b) IL-15 (at a final concentration of 10 U/mL) (to induce differentiation into memory precursor effector cells (MPECs) as a positive control.
Extra media was added at day 5 to the wells with fresh agents and cytokines.
(§7) The cells were then incubated at 37° C. for 4 days before proceeding with FACS staining or Seahorse analysis.
Cells were harvest from the 96-well plates and centrifuged (2000 rpm, 2 min at 4° C.) before washing with 150 μL of PBS.
(§8) The cells were then resuspended in 60 μL of LiveDead dye solution (1:500 dilution in PBS) and incubated for 15 min on ice. Cells were then centrifuged (2000 rpm, 2 min at 4° C.) before washing with 150 μL of PBS and then 200 μL of FACS buffer (PBS+2% FBS).
Subsequently, the cells were resuspended in 60 μL of stain solution (FACS buffer+antibodies specific for CD45.1, CD62L and CD8), and incubated for 15 min on ice.
(§9) Cells were then centrifuged (2000 rpm, 2 min at 4° C.) before washing with 150 μL of FACS buffer, and then resuspended in 150 μL of FACS buffer before analysis by FACS (BD™ LSR II).
After acquisition, FACS data were analysed using the FlowJo treestar software and median fluorescence for CD62L was extracted.
(§10) To study the enhancement of T cell immune fitness the in vitro studies focused on the development of T cells with long term and resting phenotypes, which could be equated to the development of memory cell characteristics. The metabolic intervention outcomes were evaluated using: • Cell phenotype: assessment by FACS of the cell surface expression of the specific marker CD62L, which is higher on resting T-cells. • Cell function: assessment using metabolic potential measurement (as per the Spare Respiratory Capacity) by means of an assay assessing cell respiration upon mitochondrial stress (Seahorse technology), which is higher in memory, quiescent cells.

[2] = test system: OTI-1 CD8+ T-cells; experiment: Seahorse mitochondrial stress analysis, spare respiratory capacity (metabolic potential); format: cell-based, mouse; conditions: day 7, negative control = effector T cells expanded with IL-2/7, concentrations as in the 1st table/the 2nd table
Method: as §1, §2, §3, §4, §5, §6, §7
Cells were harvested from 12-well or 6-well plates.
A probe plate containing cartridge pores (Seahorse XFe96 FluxPak) was prepared by adding 200 μL of Seahorse XF Calibrant solution (Agilent) to each well and incubating overnight at 37° C. (no CO2).
Residues were removed by transferring the cells to a 15 mL tube and a Pasteur pipette was added. 2 mL of Lympholyte M was slowly added to the Pasteur pipette, and the Ficoll was allowed to slowly release below the cells before the pipette was removed from the tube. The tube was the centrifuged at 1500 rpm, 10 min at room temperature without braking.
5 mL of fresh uncompleted RPMI was added to the cells, and the mixture was centrifuged at 1500 rpm, 5 min at room temperature. The cells were then resuspended in 1 mL of RPMI completed media (+10% FBS, Sodium Pyruvate).
Subsequently, the cells were counted before being resuspended at 5×10^6 cells/mL in completed XF Medium (non-buffered RPMI, with glucose (25 mM), L-glutamine (2 mM) and sodium pyruvate (1 mM), pH 7.3).
40 μL of cells were then distributed in corresponding pre-determined Poly-D-Lysine coated wells of a cell culture plate (V3-PS TC-Treated) and the plate was centrifuged at 400 g, 5 min.
140 μL of XF Medium was carefully added to each well, and the plate was incubated at 37° C., 30-60 min (no CO2). During this time modulator solutions (Oligomycin 10 μM; FCCP 15 μM; Rotenone/Antimycin A 1 μM/1 μg/mL) were loaded into the previously prepared cartridge pores: 20 μL of Oligomycin in pore A; 22 μL of FCCP in pore B; and 24 μL of Rotenone/Antimycin A in pore C) and the cartridge was incubated at 37° C. (no CO2).
Mitochondrial stress analysis was then carried out using the Wave software following the manufacturer instructions.
After data acquisition, oxygen consumption rates were extracted and spare respiratory capacity calculated following the manufacturer's instructions.
as §10

[3] = test system: OTI-1 T cells; experiment: Adoptive transfer of pre-treated OTI-1 T cells into Listeria monocytogenes (Lm-OVA) infected mice, FACS of blood and spleen after 35 days; format: in vivo, C57BL/6 mice; conditions: for cell frequency: percentage of transferred cells (CD45.1) from total CD8 positive T cells, compared with control / percentage of memory cells (CD27 and CD43 positive) from CD8 positive transferred cells / percentage of MPECs (CD127 positive, KLRG1 negative) from CD8 positive transferred cells: 35 days of infection; for frequency levels of transferred cells compared with positive control (Phenformin treatment): Phenformin 100 μM pre-treatment
Method: The metabolic intervention consisted of cell medium supplementation as described above for the in vitro procedure) using the following agent concentrations, before adoptive transfer of the cells into infected mice.
For the in vivo assessment, the positive control was obtained by pre-treating the OTI-1 CD8 T-cells in vitro with Phenformin (100 μM) following the same procedure as for the other agents). Phenformin is known to induce a metabolic switch in cells essential for the development of long-term T-cells.
C57BL/6 mice were injected intravenously with 2000 CFU of Listeria monocytogenes bacteria expressing OVA at a concentration of 1×10^4 CFU/mL (Lm-OVA; harvested in Brain Heart Infusion media without antibiotics until OD reached 0.3) in 200 μL of PBS to induce a Listeria monocytogenes infection.
Treated OTI-1 T-cells (specific for OVA recognition) were provided from day 7 of the procedure described above in Example 1 at a concentration of 1×10^5 cells/mL in PBS. Residues were cleaned from the T cells using Lympholyte M as described above.
Adoptive transfer of OTI-1 T cells was carried out by intravenously injecting each mouse with 1×10^4 cells in 200 μL of PBS.
After 35 days, the mice were sacrificed to collect blood and spleens for further surface and intracellular FACs analysis.
Harvested blood or total spleen cells were subjected to red blood cell lysis in a 96-well plate and then centrifuged (2000 rpm, 2 min at 4° C.) before washing with 150 μL of PBS.
as §8
Subsequently, the cells were resuspended in 60 μL of stain solution (FACS buffer+antibodies specific for CD45.1, CD62L, CD8, CD127, KLRG1, CD27, CD43 and CXCR3), and incubated for 15 min on ice.
as §9
After acquisition, FACS data were analysed using the FlowJo treestar software and percentages of gated cells for targeted markers were extracted. […]
The cells were the centrifuged (2000 rpm, 2 min at 4° C.) and washed with 150 μL of 1× Permeabilization buffer (Intracellular staining kit (BD™)), and then centrifuged (2000 rpm, 2 min at 4° C.) and washed with 200 μL of FACS buffer. 200 μL of FACS buffer was then added and the mixture stored at 4° C. till analysis by FACS (BD™ LSR II) either the same or following day.
After acquisition, data were analysed using the FlowJo treestar software and percentages of gated cells for the targeted markers were extracted.
To study the enhancement of T cell immune fitness the in vivo studies focused on the development of T cells with long term and resting phenotypes after treatment and adoptive transfer into mice simultaneously infected with Listeria monocytogenes. The metabolic intervention outcomes were evaluated after 35 days of infection using: • Cell frequency: assessment by FACS of the percentage of transferred cells (CD45.1) from total CD8 positive T cells in the mice blood and spleen. • Cell phenotype: assessment by FACS of the percentage of cells from the blood and spleen that developed memory patterns from total CD8 positive transferred cells (CD45.1): either memory precursor effector cells (MPECs; both positive for CD127 and negative for KLRG1 markers) or full memory cells (positive for both CD27 and CD43 markers). • Cell function: assessment by FACS of the percentage of transferred cells (CD45.1) from total CD8 positive T cells in the mice spleen expressing the functional surface marker CXCR3 and able to produce both IFNγ and TNFα cytokines by intracellular staining.

Row | Compound | CD62L surface expression level compared with negative control [1] | metabolic potential (spare respiratory capacity) compared with negative control [2] | cell frequency: percentage of transferred cells (CD45.1) from total CD8 positive T cells, compared with control ([3]; blood) | cell frequency: percentage of transferred cells (CD45.1) from total CD8 positive T cells, compared with control ([3]; spleen) | percentage of memory cells (CD27 and CD43 positive) from CD8 positive transferred cells ([3]; spleen) | percentage of MPECs (CD127 positive, KLRG1 negative) from CD8 positive transferred cells ([3]; blood) | percentage of memory cells (CD27 and CD43 positive) from CD8 positive transferred cells ([3]; blood) | frequency levels of transferred cells compared with positive control (Phenformin treatment) ([3]; blood) | percentage of MPECs (CD127 positive, KLRG1 negative) from CD8 positive transferred cells ([3]; spleen) | frequency levels of transferred cells compared with positive control (Phenformin treatment) ([3]; spleen)
1 | [Cl][Mn][Cl] [Mn, MnCl2] | higher | higher |  |  |  |  |  |  |  | 
2 | N[C@@H](CO)C(=O)O [Ser, Serine] | higher | higher |  |  |  |  |  |  |  | 
3 | N=C(N)NCCC[C@H](N)C(=O)O [Arg, Arginine] | higher | higher | higher | higher | higher |  |  |  |  | 
4 | NC(=O)c1ccc[n+]([C@@H]2O[C@H](CO)[C@@H](O)[C@H]2O)c1 [NR, Nicotinamide riboside] | higher | higher | higher | higher | higher | higher | higher | higher | higher | similar
5 | NC(=O)C[C@H](N)C(=O)O [Asn, Asparagine] | higher | higher |  |  |  |  |  |  |  | 
6 | NCC(=O)O [Gly, Glycine] | higher | higher |  |  |  |  |  |  |  | 
7 | O=c1oc2cc(O)ccc2c2ccc(O)cc12 [UroA, urolithin A (3,8-dihydroxyurolithin)] | higher | higher |  |  |  |  |  |  |  | 
8 | Vitamin B12 | higher | higher | higher | higher | higher |  | higher | higher | higher | higher
